{"source": "paper PMC6814738", "about": "“Bacterial MgrB peptide activates chemoreceptor Fpr3 in mouse accessory olfactory system and drives avoidance behaviour” (Nature Communications, 2019)", "key": {"[1]": {"system": "vomeronasal sensory neurons (VSNs)", "experiment": "Density of responding VSN knobs in mice of various genotypes, Rhod-2 Ca2+ imaging (Fig. 7a, b)", "format": "cell-based, mouse", "details": "f-MKKFRW 1 µM or PUM; for density of responding knobs: mean ± s.d.", "excerpt": "Mice (6–20 week old, either sex) were euthanized by CO2 inhalation according to institutional guidelines. After decapitation, the skin was removed from the skull, the mandible was cut off and the cranium was opened by a sagittal cut, 1–2-mm right-lateral in parallel to the midline. The palate and the right incisor were removed and the hemisected skull was mounted in low-melting agarose (4%). The bony capsule of the VNO was opened with fine forceps and the nonsensory epithelium was stripped off. Tissue and cell debris were gently washed off, and the en face preparation was superfused with physiological S1 solution (120 mM NaCl, 25 mM NaHCO3, 5 mM KCl, 1 mM MgSO4, 1 mM CaCl2, 10 mM glucose, 5 mM BES, pH 7.3) saturated with carbogen (95% O2, 5% CO2).\nLoading of the VNE with Rhod-2/AM (5–15 µM, 1 h) was performed in S1 solution under carbogen atmosphere at RT. Images were taken with an upright confocal laser scanning microscope (Leica TCS SP5 II, 20x water immersion objective HCX APO L20x/1.0w) equipped with Ar and He/Ne lasers. GFP was excited at 488 nm, Venus at 514 nm and Rhod-2 at 543 nm. Emission was measured at 490–520 nm (GFP), 520–600 nm (Venus) and 560–680 nm (Rhod-2). To minimise interference between Venus and Rhod-2 fluorescence, images were taken sequentially (sample interval per image, 3–4 s). Peptide stimuli were applied to the VNE surface with a local perfusion system which, when positioned close to the anterior end of the VNO, produced a continuous solution stream from rostral to caudal along the VNO axis. Data analysis was performed with the open source software ImageJ (NIH). Ca^2+ responses of individual dendritic knobs were normalised to the knob resting fluorescence level obtained before stimulation (ratio Fx/F0, Fx = actual fluorescence; F0 = mean fluorescence of 3–5 images before ligand application). Mapping was performed by superimposing Ca^2+ peak images onto images showing intrinsic fluorescence for specific markers.\nPredator urine mix was composed of urine from mountain lion, coyote, bobcat, fox and marten (at equal volume ratios), purchased from Predatorpee (USA) and Kieferle (Germany). The fMet peptides were as described above. Stimuli were applied in S2 solution (140 mM NaCl, 5 mM KCl, 10 mM HEPES, 1 mM CaCl2, 1 mM MgCl2, 10 mM glucose, pH 7.3 with NaOH).\nFor calculations of VSN knob density, we analysed randomly selected VNE areas, each containing several hundred knobs. The mean density of OMP-GFP+ knobs was 11.25 knobs/100 µm². Through the knob density and the VNE surface area, an estimate of the total number of VSNs per VNO can be made. Assuming a mean lumen diameter of 450 µm, a length of 2 mm and an end-to-end semilunar cross-sectional shape of the VNO, a number of ~150,000 VSNs (per side) can be estimated. This number is consistent with our previous estimates."}, "Fpr3-expressing VSNs": {"system": "Fpr3-expressing VSNs", "experiment": "Egr1 induction in Fpr3-positive VSNs after voluntary peptide uptake in freely behaving mice, RNAscope (Fig. 7d, f)", "format": "in vivo, mouse", "details": "male B6 mice", "experimental": "For each mouse, serial coronal VNO cryosections (12 µm) were collected as two alternate sets, each representing every second section of the whole VNO. One set was subjected to RNAscope in situ hybridisation using the RNAscope Fluorescent Multiplex Detection Kit (ACD Bio-Techne) and specific probes for Fpr3 and LacZ according to the manufacturer’s protocol. Sections were incubated in 1 x citrate buffer pH 6.0 (DAKO, Germany) for 5 min at 98 °C in a coplin jar, rinsed twice in distilled water, dehydrated in 100% ethanol, and air dried prior to protease III treatment for 30 min at 40 °C. […] Following hybridisation (2 h, 40 °C), sections were rinsed twice for 2 min in wash buffer (ACD Bio-Techne), and sequentially treated with amplification solutions at 40 °C (30 min Amp1-FL, 15 min Amp2-FL, 30 min Amp3-FL) and fluorescence reagent (15 min, 40 °C Amp4-altC), with intermitting washing steps at room temperature between reagents. Cell nuclei were stained with DAPI solution (ACD Bio-Techne) for 1 min, and tissue sections were mounted with DAKO fluorescence medium and stored for 12 h at 4 °C. Fluorescence images of the RNAscope results were acquired from each section using a Zeiss LSM 880 confocal microscope containing a 32-channel GaAsP-PMT and 2-channel PMT QUASAR detector. […]"}, "[2]": {"details": "B6, B2m-Venus+/− and NP2∆+/− mice pooled, n = 14 mice"}}, "note": "“Also recorded” adds a separate entry of the source. Peptide text beside a SMILES is read from it. * marks the point of attachment. For = O=C*"}
{"smiles": "CSCC[C@H](NC=O)C(=O)N[C@@H](CCCCN)C(=O)N[C@@H](CCCCN)C(=O)N[C@@H](Cc1ccccc1)C(=O)N[C@@H](CCCNC(=N)N)C(=O)N[C@@H](Cc1c[nH]c2ccccc12)C(=O)O", "note": "[f-MKKFRW] (For-MKKFRW-OH)", "values": [{"measurement": "VSN Ca2+ responses, in words", "setting": "[1]; 129Sv mice", "result": "no responses; also recorded: fail to respond"}, {"measurement": "density of responding knobs", "setting": "[1]; B2m-Venus +/−", "result": "0.2 ± 0.1", "unit": "%"}, {"measurement": "density of responding knobs", "setting": "[1]; B6", "result": "0.12 ± 0.04", "unit": "%"}, {"measurement": "density of responding knobs", "setting": "[1]; NP2∆ +/−", "result": "0.2 ± 0.09", "unit": "%"}, {"measurement": "VSN Ca2+ responses, in words", "setting": "[1]; Trpc2 −/− mice", "result": "absent; also recorded: fail to respond"}, {"measurement": "VSN Ca2+ responses, in words", "setting": "[1]; cGαo −/− mice", "result": "absent; also recorded: fail to respond"}, {"measurement": "density of responding knobs, mean", "setting": "[1]; [2]", "result": "0.16 ± 0.08", "unit": "%"}, {"measurement": "density of responding knobs, range", "setting": "[1]; [2]", "result": "0.07 to 0.29", "unit": "%"}, {"measurement": "VSN Ca2+ responses, in words", "setting": "[1]; ∆Fpr3-lacZ −/− mice", "result": "absent; also recorded: fail to respond"}, {"measurement": "fraction of Fpr3-positive VSNs co-localised with Egr1", "setting": "Fpr3-expressing VSNs; 100 µM in 50% FEU, mean ± s.d.", "result": "0.46 ± 0.12"}, {"measurement": "Egr1-positive / Fpr3-positive VSNs", "setting": "Fpr3-expressing VSNs; 100 µM", "result": "77/160"}]}
